Measurements published in Sander's compilation of Henry's law constants (doi:10.1021/je0000266).

test: Henry solubility constant Hcp at 298.15 K (mol/(m3 Pa)); conditions: reference: Bamford et al. (2000)

Point of comparison: `Clc1cc(Cl)c(-c2cc(Cl)c(Cl)cc2Cl)c(Cl)c1` [2,2',4,4',5,6'-hexachlorobiphenyl], “Henry solubility constant Hcp” value 0.013. Against it:
- Clc1ccccc1-c1ccccc1 [2-chlorobiphenyl] — higher, 0.049
- Clc1cc(Cl)c(-c2ccccc2Cl)c(Cl)c1 [2,2',4,6-tetrachlorobiphenyl] — higher, 0.016
- Clc1ccc(-c2ccc(Cl)c(Cl)c2)cc1Cl [3,3',4,4'-tetrachlorobiphenyl] — higher, 0.062
- Clc1ccc(-c2ccc(Cl)c(Cl)c2)c(Cl)c1 [2,3',4,4'-tetrachlorobiphenyl] — higher, 0.027
- Clc1cc(Cl)c(-c2cc(Cl)c(Cl)cc2Cl)cc1Cl [2,2',4,4',5,5'-hexachlorobiphenyl] — higher, 0.019
- Clc1ccc(-c2ccccc2Cl)cc1 [2,4'-dichlorobiphenyl] — higher, 0.04
- Clc1ccc(-c2cc(Cl)c(Cl)c(Cl)c2)cc1Cl [3,3',4,4',5-pentachlorobiphenyl] — higher, 0.048
- Clc1cc(Cl)c(-c2c(Cl)c(Cl)cc(Cl)c2Cl)c(Cl)c1Cl [2,2',3,3',4,5',6,6'-octachlorobiphenyl] — lower, 0.01
- Clc1ccc(-c2ccc(Cl)c(Cl)c2Cl)cc1Cl [2,3,3',4,4'-pentachlorobiphenyl] — higher, 0.03
- Clc1ccc(Cl)c(-c2cc(Cl)c(Cl)cc2Cl)c1 [2,2',4,5,5'-pentachlorobiphenyl] — higher, 0.024
- Clc1ccc(Cl)c(-c2cc(Cl)ccc2Cl)c1 [2,2',5,5'-tetrachlorobiphenyl] — higher, 0.032
- Clc1cc(Cl)c(-c2c(Cl)c(Cl)cc(Cl)c2Cl)cc1Cl [2,2',3,4',5,5',6-heptachlorobiphenyl] — higher, 0.016
- Clc1ccc(-c2cc(Cl)c(Cl)cc2Cl)cc1Cl [2,3',4,4',5-pentachlorobiphenyl] — higher, 0.028
- Clc1ccc(Cl)c(-c2ccccc2Cl)c1 [2,2',5-trichlorobiphenyl] — higher, 0.039
- Clc1cc(Cl)c(-c2c(Cl)c(Cl)cc(Cl)c2Cl)c(Cl)c1 [2,2',3,4',5,6,6'-heptachlorobiphenyl] — lower, 0.0088
- Clc1ccc(Cl)c(-c2cccc(Cl)c2Cl)c1 [2,2',3,5'-tetrachlorobiphenyl] — higher, 0.036
- Clc1cc(Cl)c(-c2ccc(Cl)c(Cl)c2Cl)cc1Cl [2,2',3,4,4',5'-hexachlorobiphenyl] — higher, 0.022
